Here are results for 3 molecules from patent publication US20240376099A1, “COMPOUNDS AND COMPOSITIONS AS INHIBITORS OF ENDOSOMAL TOLL-LIKE RECEPTORS” (Novartis AG, priority 2016, published 2024).

Some results are limits rather than exact numbers.

Holding throughout (assay type): cell-based
The target of one test is T1, TLR7 (Homo sapiens, UniProt Q9NYK1).
T1 construct: Fresh blood was collected from normal human donors; endogenous in cells; host or cells: human PBMCs from fresh donor blood
T1 sequence (Q9NYK1 27-1049): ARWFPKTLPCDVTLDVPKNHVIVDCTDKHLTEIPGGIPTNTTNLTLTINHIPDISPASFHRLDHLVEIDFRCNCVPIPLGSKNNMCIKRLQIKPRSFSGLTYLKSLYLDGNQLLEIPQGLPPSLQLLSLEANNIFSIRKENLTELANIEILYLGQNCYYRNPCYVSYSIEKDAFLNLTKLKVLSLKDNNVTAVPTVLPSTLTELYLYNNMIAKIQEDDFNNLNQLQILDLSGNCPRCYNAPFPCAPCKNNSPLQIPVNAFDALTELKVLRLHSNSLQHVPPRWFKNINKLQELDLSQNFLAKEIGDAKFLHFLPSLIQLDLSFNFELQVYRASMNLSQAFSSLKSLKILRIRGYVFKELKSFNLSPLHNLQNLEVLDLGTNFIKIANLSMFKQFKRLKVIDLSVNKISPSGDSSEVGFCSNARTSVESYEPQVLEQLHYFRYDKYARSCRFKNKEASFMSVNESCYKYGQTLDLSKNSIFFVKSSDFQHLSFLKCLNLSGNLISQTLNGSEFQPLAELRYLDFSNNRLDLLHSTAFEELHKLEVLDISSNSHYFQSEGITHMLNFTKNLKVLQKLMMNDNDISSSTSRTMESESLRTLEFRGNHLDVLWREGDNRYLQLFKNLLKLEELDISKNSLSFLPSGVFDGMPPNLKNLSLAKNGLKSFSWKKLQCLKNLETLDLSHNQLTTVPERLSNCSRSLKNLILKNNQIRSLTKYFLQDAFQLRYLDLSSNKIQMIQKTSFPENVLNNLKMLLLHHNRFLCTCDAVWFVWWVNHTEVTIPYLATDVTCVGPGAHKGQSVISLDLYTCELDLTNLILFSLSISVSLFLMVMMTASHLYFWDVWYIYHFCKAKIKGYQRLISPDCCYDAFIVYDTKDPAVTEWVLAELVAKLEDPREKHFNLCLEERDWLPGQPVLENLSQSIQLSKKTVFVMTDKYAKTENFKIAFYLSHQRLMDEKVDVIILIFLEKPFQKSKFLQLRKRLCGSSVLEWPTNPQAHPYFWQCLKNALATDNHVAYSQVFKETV
The test can be described thus: huPBMC TLR7 Antagonist IFNα Assay. As to conditions: human PBMCs stimulated with ssRNA40 10 μg/mL (DOTAP), 14-16 hrs; IFNα2b AlphaLISA read-out. The protocol:
(§1) Compounds were generally serially diluted (1/3) in DMSO and plated on sterile 384 well tissue culture plates and stored until ready for use. Each ten-point dilution was typically plated in triplicate in parallel rows.
(§2) Fresh blood was collected from normal human donors underwritten informed consent in heparinized syringes on the morning of the assay. The blood was diluted in RPMI-1640 medium and the white blood cells were separated from red blood cells by centrifugation (800 g 15′ 0 acceleration, 0 brake) on a Ficoll cushion. Peripheral blood mononuclear cells (PBMCs) were separated from platelets by a series of low-speed centrifugations (1000RPM 10′) in PBS+5% HI—FBS and 1 mM EDTA. Purified PBMCs were re-suspended in assay medium (RPMI-1640 w Glutamax (Invitrogen) supplemented with 5% HI—FBS, 10 mM HEPES, 50 uM β-mercaptoethanol, and 100 mG/L penicillin/streptomycin cocktail). Viable PBMCs were counted on a hemacytometer and kept on ice until ready for plating.
(§3) A 4× concentration (4 ug/ml or 40 ug/ml for TLR8 or TLR7 assays, respectively) of the TLR7/8 agonist ssRNA40 (IDT) was complexed with 10% DOTAP (Roche) in assay medium for 30 min prior to addition to the PBMC suspension (5 million cells/ml). After addition, the final concentration of ssRNA40 in the TLR7/8 stimulated PBMC suspension was 1 μg/ml for TLR8 assay, and 10 μg/mL for the TLR7 assay. The final DOTAP concentration was 2.5%. Diluted PBMCs (5 million cells/ml) were treated with 4×TLR9 agonist ODN2216 (Invivogen). Final concentration of ODN2216 in TLR9 stimulated PBMC suspension was 0.3 μM.
(§4) Agonist stimulated PBMCs were plated on the compound treated 384 well plates at 150,000 cells/well. Un-stimulated PBMCs were plated as controls on each plate. Plating volume was 40 μL per well. DMSO concentration in each well was 0.25%.
(§5) A separate plate, without compounds, with titrations of ssRNA40 and ODN2216 was included in every assay to measure agonist response of each donor's PBMC prep. Assay plates were placed in a tissue culture incubator (37° C., 5% CO2) for 14-16 hrs. After this incubation, the plates were centrifuged and stored at −20° C. until they were assayed.
(§6) IL-6 TR-FRET Assay for TLR8 activity: • 1) Cisbio Human IL-6 kit, 20,000 tests (62TNFPEC), and GNF High-Base TC 384 well plates (cat #789163G) were used; • 2) the Anti-TIL-6 Cryptate conjugate and the Anti-IL-6 XL665 conjugate were diluted 1:20 in Reconstitution Buffer; • 3) a 1:1 mixture of 3 μl/well Anti-IL-6 Cryptate conjugate and 3 μl/well Anti-IL-6 XL665 conjugate was prepared; • 4) 6 μl/well HTRF dilution mastermix was added to 6 μl of transferred supernatant samples in proxiplates; • 5) The plates were incubated for 3 hrs at rt in the dark; and • 6) the levels of IL-6 production was measured using an Envision plate reader (665 nm (emmission)/590 nm (excitation)) with HTRF settings and ratiometric read-out: (XL665 emission/Eu Cryptate emission)×10,000. IFNα2b AlphaLISA Assay for TLR7 or TLR9 activity After thawing the assay plates, 6 μL of supernatant samples were transferred to a low-volume AlphaPlate 384SW (Perkin-Elmer). The concentration of IFNα in supernatants was measured using the IFNα2b AlphaLISA Assay (Perkin-Elmer: AL297F). 3 μL of IFNα acceptor beads/biotinylated antibody solution was added first, using laboratory automation. After an hour incubation, […] of streptavidin […] bead solution was added. The plates containing this mixture were incubated in the dark for an hour and read on an appropriate plate reader at reading parameters set by the manufacturer. (Envision, EnSpire: Perkin-Elmer).
A general note: Alpha assays give light when donor and acceptor beads are brought close together.

The target in the next test is T2, TLR9 (Homo sapiens, UniProt Q9NR96).
T2 construct: Fresh blood was collected from normal human donors; endogenous in cells; host or cells: human PBMCs from fresh donor blood
T2 sequence (Q9NR96 26-1032): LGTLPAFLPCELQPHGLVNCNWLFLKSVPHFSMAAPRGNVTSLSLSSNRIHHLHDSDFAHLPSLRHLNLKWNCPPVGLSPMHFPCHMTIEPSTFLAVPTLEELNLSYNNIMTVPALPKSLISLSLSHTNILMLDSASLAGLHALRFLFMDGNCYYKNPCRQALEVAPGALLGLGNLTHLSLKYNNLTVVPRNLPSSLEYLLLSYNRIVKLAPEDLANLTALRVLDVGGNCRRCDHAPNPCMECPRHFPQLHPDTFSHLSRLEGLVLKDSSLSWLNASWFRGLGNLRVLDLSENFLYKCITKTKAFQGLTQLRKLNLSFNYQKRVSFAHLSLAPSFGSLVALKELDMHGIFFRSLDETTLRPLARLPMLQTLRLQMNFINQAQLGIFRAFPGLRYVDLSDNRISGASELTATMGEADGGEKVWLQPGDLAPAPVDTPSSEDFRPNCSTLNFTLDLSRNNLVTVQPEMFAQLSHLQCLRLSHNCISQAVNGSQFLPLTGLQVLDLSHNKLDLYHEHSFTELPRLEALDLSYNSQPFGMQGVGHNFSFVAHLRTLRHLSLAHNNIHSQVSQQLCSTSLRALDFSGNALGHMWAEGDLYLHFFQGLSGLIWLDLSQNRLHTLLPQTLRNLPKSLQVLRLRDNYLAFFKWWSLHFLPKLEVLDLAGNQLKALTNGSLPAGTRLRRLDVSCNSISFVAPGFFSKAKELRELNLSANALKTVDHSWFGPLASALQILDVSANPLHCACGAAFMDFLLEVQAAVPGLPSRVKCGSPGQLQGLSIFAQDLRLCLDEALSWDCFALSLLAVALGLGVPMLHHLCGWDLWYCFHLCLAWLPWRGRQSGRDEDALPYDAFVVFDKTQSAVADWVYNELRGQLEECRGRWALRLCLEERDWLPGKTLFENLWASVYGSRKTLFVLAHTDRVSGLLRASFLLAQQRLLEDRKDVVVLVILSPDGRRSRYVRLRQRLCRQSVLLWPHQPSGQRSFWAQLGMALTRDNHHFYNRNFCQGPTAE
Nature of the test: huPBMC TLR9 Antagonist IFNα Assay. As to conditions: human PBMCs stimulated with ODN2216 0.3 μM, 14-16 hrs; IFNα2b AlphaLISA read-out. The method, then:
as §1, §2, §3, §4, §5, §6

The target in a further test is T3, TLR8 (Homo sapiens, UniProt Q9NR97).
T3 sequence (Q9NR97 27-1041): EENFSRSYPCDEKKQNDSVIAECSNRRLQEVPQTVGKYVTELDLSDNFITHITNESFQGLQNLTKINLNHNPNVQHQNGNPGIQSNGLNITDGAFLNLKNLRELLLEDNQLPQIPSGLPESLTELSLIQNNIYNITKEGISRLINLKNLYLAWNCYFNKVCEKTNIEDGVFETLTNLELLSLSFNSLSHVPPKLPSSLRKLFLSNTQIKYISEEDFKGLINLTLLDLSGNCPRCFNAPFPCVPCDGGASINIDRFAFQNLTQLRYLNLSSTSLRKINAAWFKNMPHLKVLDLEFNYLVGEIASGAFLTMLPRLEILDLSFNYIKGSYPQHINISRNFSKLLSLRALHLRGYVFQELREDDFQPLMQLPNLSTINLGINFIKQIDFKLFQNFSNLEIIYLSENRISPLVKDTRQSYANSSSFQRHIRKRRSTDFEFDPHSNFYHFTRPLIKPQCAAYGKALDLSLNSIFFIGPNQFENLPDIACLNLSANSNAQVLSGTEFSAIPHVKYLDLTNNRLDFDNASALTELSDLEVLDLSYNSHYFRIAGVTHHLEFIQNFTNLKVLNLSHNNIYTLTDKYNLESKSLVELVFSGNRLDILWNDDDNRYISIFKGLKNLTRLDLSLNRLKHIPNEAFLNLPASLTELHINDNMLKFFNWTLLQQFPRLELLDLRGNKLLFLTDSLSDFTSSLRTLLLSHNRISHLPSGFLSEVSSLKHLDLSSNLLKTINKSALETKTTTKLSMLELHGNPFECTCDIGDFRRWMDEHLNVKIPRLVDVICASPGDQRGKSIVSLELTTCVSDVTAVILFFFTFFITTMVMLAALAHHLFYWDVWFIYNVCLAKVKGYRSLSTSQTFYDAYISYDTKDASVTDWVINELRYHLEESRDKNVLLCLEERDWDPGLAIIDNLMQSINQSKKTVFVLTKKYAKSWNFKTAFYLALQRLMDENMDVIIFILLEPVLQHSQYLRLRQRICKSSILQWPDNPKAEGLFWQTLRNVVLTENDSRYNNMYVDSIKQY
Nature of the test: huPBMC TLR8 Antagonist IL-6 TR-FRET Assay. Set-up: Fresh blood was collected from normal human donors; endogenous in cells; host or cells: human PBMCs from fresh donor blood. To be noted: human PBMCs stimulated with ssRNA40 1 μg/ml (DOTAP), 14-16 hrs; IL-6 TR-FRET read-out. In short, it runs like this:
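Human PBMCs from fresh donor blood (150,000 cells/well) stimulated 14–16 h at 37 °C with DOTAP-complexed ssRNA40 (final 1 μg/ml for TLR8, 10 μg/mL for TLR7) or ODN2216 (final 0.3 μM, TLR9), 0.25% DMSO, ten-point 1/3 compound dilutions. Supernatant IL-6 read by HTRF (TLR8); IFNα by IFNα2b AlphaLISA (TLR7/TLR9).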
A general note: In TR-FRET formats the signal depends on donor and acceptor labels being close together.

In the case of `CC(=O)NC12CCC(Cn3nc(C)c4c3CCN(c3cc(C)nc5c3cnn5C)C4)(CC1)CC2` [compound 47, N-(4-((5-(1,6-dimethyl-1H-pyrazolo[3,4-b]pyridin-4-yl)-3-methyl-4,5,6,7-tetrahydro-1H-pyrazolo[4,3-c]pyridin-1-yl)methyl)bicyclo[2.2.2]octan-1-yl)acetamide], the IC50 was 4 nM at TLR7 and more than 10000 nM on TLR9.

`Cc1cc(N2CCc3c(c(C)nn3CC34CCC(N5C[C@H]6CC[C@@H](C5)O6)(CC3)CC4)C2)c2cnn(C)c2n1` [compound 120, (1R,5S)-3-(4-((5-(1,6-dimethyl-1H-pyrazolo[3,4-b]pyridin-4-yl)-3-methyl-4,5,6,7-tetrahydro-1H-pyrazolo[4,3-c]pyridin-1-yl)methyl)bicyclo[2.2.2]octan-1-yl)-8-oxa-3-azabicyclo[3.2.1]octane]: the IC50 was 4 nM at TLR7 and 20 nM at TLR8.

For `Cc1cc(N2CCc3c(c(C)nn3CC34CCC(N5CCCCC5)(CC3)CC4)C2)c2cnn(C)c2n1` [compound 67, 5-(1,6-dimethyl-1H-pyrazolo[3,4-b]pyridin-4-yl)-3-methyl-1-((4-(piperidin-1-yl)bicyclo[2.2.2]octan-1-yl)methyl)-4,5,6,7-tetrahydro-1H-pyrazolo[4,3-c]pyridine], the IC50 at TLR7 turned out to be 5 nM; on TLR8, 11 nM.

As usually defined, the IC50 is the midpoint of a concentration-inhibition curve.
